Source: publication PMC10987480, “Biological and mutational analyses of CXCR4–antagonist interactions and design of new antagonistic analogs” (Bioscience Reports, 2023)
Positions of bridges follow the written chain, without caps; N, C: chain ends. Non-standard residues stand in square brackets, D forms with d. Residues, ends and D or L forms follow the SMILES beside them. Chains are numbered I, II in the order given. No end group written: not given here. 2Nal = N[C@@H](Cc1ccc2ccccc2c1)C(=O)O; Lys(iPr) = CC(C)NCCCC[C@H](N)C(=O)O

Tests used:
CXCR4 Y45A = biological target: T1, CXCR4 Y45A (Homo sapiens, UniProt P61073, Y45A); assay: Competitive binding to CXCR4 mutant Y45A (12G5, CHO cells); details: TM1, class of reduction vs wild-type CXCR4, 12G5 competition, averages of at least three independent experiments
T1 construct: expressed in transfected cells
Method: (§1) Plasmid pcDNA3-CXCR4 and mutated pcDNA3-CXCR4 were extracted and transfected into CHO cells using Lipofectamine 2000 according to the manufacturer’s guidelines. The selective medium containing G418 at a concentration of 1.2 mg/ml was applied to isolate stably transfected cells. CHO cells expressing wild-type CXCR4 and mutant CXCR4 were obtained using fluorescence-activated cell sorting (FACS).
(§2) All of the CXCR4 mutants were prepared using PCR technology. Briefly, pairs of asymmetrical primers containing the desired amino acid mutations (Supplementary Tables S1 and S2), each complementary to opposite strands of the pcDNA3–CXCR4, were designed for amplification by Q5® High-Fidelity DNA polymerase and the generation of mutated constructs. The methylated pcDNA3–CXCR4 templates were digested by DpnI. The mutated pcDNA3–CXCR4 was transformed into competent E. coli TOP10 for long-term storage and amplification.
(§3) The procedure for the CXCR4 competitive binding experiments was published previously. Briefly, CXCR4 antibody 12G5 (250 ng/ml) was incubated with 5 × 10^5 cells and varying concentrations of unlabeled compounds in a final volume of 100 μl of assay buffer (PBS with 0.5% BSA and 0.05% NaN3) in 96-well plates for 40 min on ice, after being washed with assay buffer once. The cells were incubated with FITC-conjugated second antibody IgG for 30 min on ice, then washed with assay buffer three times. The fluorescence intensity was measured for excitation at 485 nm and emission at 535 nm using multimode plate reader (PerkinElmer). The IC50 values were calculated using graphpad Prism 7. Experiments were performed at least three times.

CXCR4 Y256A = biological target: T2, CXCR4 Y256A (Homo sapiens, UniProt P61073, Y256A); assay: Competitive binding to CXCR4 mutant Y256A (12G5, CHO cells); details: TM6, class of reduction vs wild-type CXCR4, 12G5 competition, averages of at least three independent experiments
T2 construct: expressed in transfected cells
Method: as §1, §2, §3

CXCR4 D262E = biological target: T3, CXCR4 D262E (Homo sapiens, UniProt P61073, D262E); assay: Competitive binding to CXCR4 mutant D262E (12G5, CHO cells); details: TM6, class of reduction vs wild-type CXCR4, 12G5 competition, averages of at least three independent experiments
T3 construct: expressed in transfected cells
Method: as §1, §2, §3

CXCR4 [1] = biological target: T4, CXCR4 (Homo sapiens, UniProt P61073); assay: Competitive CXCR4 binding assay (12G5 antibody probe), wild-type CXCR4 transfected CHO cells; set-up: expressed in transfected cells; Competitive receptor binding activity, wild-type CXCR4 (WT): key to the marks not given beside the values; details: for Competitive receptor binding activity, wild-type CXCR4 (WT): class relative to wild-type, 12G5 competition, stably transfected CHO cells, averages of at least three independent experiments
Method: The CXCR4-specific antibody, 12G5 was used as a probe for the competitive CXCR4 binding assay to evaluate the binding activity of CXCR4 antagonists.
Figure 1 Competitive CXCR4 binding curves of eleven CXCR4 antagonists The CXCR4 transfected CHO cells were incubated with different concentrations of antagonists and 250 ng/ml 12G5 antibody. The CXCR4-binding 12G5 antibody was recognized by FITC-conjugated anti-IgG second antibody. The cells treated with only second antibody were used as a negative control (0%) while cells treated with both 12G5 antibody and second antibody were used as a positive control (100%). Cells treated with CXCR4 antagonists were calculated in percentage relative to the positive and negative controls. The data were averages of at least three independent experiments and shown as mean ± standard error of the mean (S.E.M.).
as §3

CXCR4 D193A = biological target: T5, CXCR4 D193A (Homo sapiens, UniProt P61073, D193A); assay: Competitive binding to CXCR4 mutant D193A (12G5, CHO cells); details: TM4, class of reduction vs wild-type CXCR4, 12G5 competition, averages of at least three independent experiments
T5 construct: expressed in transfected cells
Method: as §1, §2, §3

CXCR4 [2] = biological target: T4, CXCR4; assay: SDF-1α-induced cell migration assay in SupT1 cells (transwell); assay type: cell-based; set-up: host or cells: SupT1 cells; details: 2 nM SDF-1α, 30 min pre-incubation, 3 h migration
Method: (§4) Figure 2 The inhibitory effect of the antagonists on SDF-1α-induced cell chemotaxis and calcium mobilization in SupT1 cells The antagonists and concentrations used were labeled in each lane. (A) The inhibition of cell migration by the noted antagonists. SupT1 cells pre-treated with or without CXCR4 antagonists were seeded in the upper well and cell migrated by 2 nM SDF-1α. Migrated cells without SDF-1α were used as a negative (0%) and migrated cell induced by SDF-1α as a positive control (100%). […] SupT1 cells were treated with or without CXCR4 antagonists and activated by 50 nM SDF-1α. To directly compare the inhibitory effect of the antagonists on calcium mobilization, the vehicle background and baseline were removed using GraphPad and Origin. The data were averages of at least three independent experiments.
SupT1 cells (2 × 10^6 cells per well in 75 μl) were collected and washed using assay buffer (RPMI 1640 supplemented with 0.5% BSA) and incubated with various concentrations of tested compounds for 30 min in the upper well of the transwell-96 well plates with 5.0 µm pore polycarbonate membrane insert (Corning, U.S.A.). Then, 200 μl assay buffer containing 2 nM SDF-1α was added to the lower well and cells were allowed to migrate for 3 h. Migrated cells were measured using celltiter-96 reagent.

CXCR4 Y255A = biological target: T6, CXCR4 Y255A (Homo sapiens, UniProt P61073, Y255A); assay: Competitive binding to CXCR4 mutant Y255A (12G5, CHO cells); details: TM6, class of reduction vs wild-type CXCR4, 12G5 competition, averages of at least three independent experiments
T6 construct: expressed in transfected cells
Method: as §1, §2, §3

CXCR4 R30A = biological target: T7, CXCR4 R30A (Homo sapiens, UniProt P61073, R30A); assay: Competitive binding to CXCR4 mutant R30A (12G5, CHO cells); set-up: key to the marks not given beside the values; details: TM1, class of reduction vs wild-type CXCR4, 12G5 competition, averages of at least three independent experiments
T7 construct: expressed in transfected cells
Method: as §1, §2, §3

CXCR4 W195A = biological target: T8, CXCR4 W195A (Homo sapiens, UniProt P61073, W195A); assay: Competitive binding to CXCR4 mutant W195A (12G5, CHO cells); details: TM4, class of reduction vs wild-type CXCR4, 12G5 competition, averages of at least three independent experiments
T8 construct: expressed in transfected cells
Method: as §1, §2, §3

CXCR4 [3] = biological target: T4, CXCR4; assay: SDF-1α-induced calcium mobilization assay in SupT1 cells (Fluo-4); assay type: cell-based; set-up: host or cells: SupT1 cells; details: 50 nM SDF-1α
Method: as §4
SupT1 cells were collected and washed using HHBS buffer (Hanks’ Balanced Salt solution supplemented with 20 mM HEPES) and incubated with 1 mM probenecid (Energy Chemical, China) and 4 μM Fluo-4 (AAT bioquest, U.S.A.) for 37°C for 30 min with vortex every 5 min. After being washed with HHBS, cells were suspended in PBS at 2 × 10^6/ml and seeded 200 μl cells and various concentrations of compounds per well in 96-well plate. Following 50 nM SDF-1α was added to each well, the fluorescence intensity was measured (Ex/Em = 496/516 nm) using EnSpire® multimode plate reader (PerkinElmer, U.S.A.).

CXCR4 W161A = biological target: T9, CXCR4 W161A (Homo sapiens, UniProt P61073, W161A); assay: Competitive binding to CXCR4 mutant W161A (12G5, CHO cells); details: TM4, class of reduction vs wild-type CXCR4, 12G5 competition, averages of at least three independent experiments
T9 construct: expressed in transfected cells
Method: as §1, §2, §3

CXCR4 V112A = biological target: T10, CXCR4 V112A (Homo sapiens, UniProt P61073, V112A); assay: Competitive binding to CXCR4 mutant V112A (12G5, CHO cells); details: TM3, class of reduction vs wild-type CXCR4, 12G5 competition, averages of at least three independent experiments
T10 construct: expressed in transfected cells
Method: as §1, §2, §3

T9 sequence (P61073 whole entry W161A): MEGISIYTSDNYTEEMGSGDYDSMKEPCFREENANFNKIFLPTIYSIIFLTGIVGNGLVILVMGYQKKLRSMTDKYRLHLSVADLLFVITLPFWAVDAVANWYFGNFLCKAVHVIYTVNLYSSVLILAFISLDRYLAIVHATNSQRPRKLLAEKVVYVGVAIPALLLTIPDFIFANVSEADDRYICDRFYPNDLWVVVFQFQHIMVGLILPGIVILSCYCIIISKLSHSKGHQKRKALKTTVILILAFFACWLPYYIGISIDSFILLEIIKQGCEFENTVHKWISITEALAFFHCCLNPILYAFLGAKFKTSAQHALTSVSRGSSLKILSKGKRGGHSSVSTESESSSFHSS
T8 sequence (P61073 whole entry W195A): as the sequence (P61073 whole entry W161A) above, with A161W, W195A counted along it
T5 sequence (P61073 whole entry D193A): as the sequence (P61073 whole entry W161A) above, with A161W, D193A counted along it
T4 sequence (P61073 whole entry): as the sequence (P61073 whole entry W161A) above, with A161W counted along it
T7 sequence (P61073 whole entry R30A): as the sequence (P61073 whole entry W161A) above, with R30A, A161W counted along it
T1 sequence (P61073 whole entry Y45A): as the sequence (P61073 whole entry W161A) above, with Y45A, A161W counted along it
T6 sequence (P61073 whole entry Y255A): as the sequence (P61073 whole entry W161A) above, with A161W, Y255A counted along it
T10 sequence (P61073 whole entry V112A): as the sequence (P61073 whole entry W161A) above, with V112A, A161W counted along it
T2 sequence (P61073 whole entry Y256A): as the sequence (P61073 whole entry W161A) above, with A161W, Y256A counted along it
T3 sequence (P61073 whole entry D262E): as the sequence (P61073 whole entry W161A) above, with A161W, D262E counted along it

Compound: CC(C)NCCCC[C@H](NC(=O)[C@H]1CCC(=O)N[C@@H](Cc2ccccc2)C(=O)N[C@@H](Cc2ccc(O)cc2)C(=O)N[C@@H](CCCCNC(C)C)C(=O)N[C@H](CCCNC(=N)N)C(=O)N[C@@H](Cc2ccc3ccccc3c2)C(=O)NCC(=O)N1)C(N)=O [LY2510924] (FY[Lys(iPr)][dR][2Nal]G[dE][Lys(iPr)]-NH2; lactam N-7 (inferred))
- Competitive receptor binding activity, CXCR4 Y45A (CXCR4 Y45A): + (30–60% reduction compared with wild-type CXCR4)
- Competitive receptor binding activity, CXCR4 Y256A (CXCR4 Y256A): ++ (10–29% reduction compared with wild-type CXCR4)
- Competitive receptor binding activity, CXCR4 D262E (CXCR4 D262E): ++ (10–29% reduction compared with wild-type CXCR4)
- IC50 (CXCR4 [1]; CXCR4 transfected CHO cells, 250 ng/ml 12G5, 40 min on ice, FITC second antibody, mean ± S.E.M. of at least three independent experiments, SEM, read-out: IC50 (nM), inhibition of 12G5 binding to CXCR4): 135 ± 63.9 nM
- Competitive receptor binding activity, wild-type CXCR4 (WT) (CXCR4 [1]): +++
- Competitive receptor binding activity, CXCR4 D193A (CXCR4 D193A): +++
- inhibition at 0.4 µM (CXCR4 [2]; SUP-T1, at 400 nM): 76%
- Competitive receptor binding activity, CXCR4 Y255A (CXCR4 Y255A): ++ (10–29% reduction compared with wild-type CXCR4)
- Competitive receptor binding activity, CXCR4 R30A (CXCR4 R30A): +++
- Competitive receptor binding activity, CXCR4 W195A (CXCR4 W195A): ++ (10–29% reduction compared with wild-type CXCR4)
- Inhibition of calcium mobilization (in words) (CXCR4 [3]; single concentration (Figure 2B)): significant inhibition
- Competitive receptor binding activity, CXCR4 W161A (CXCR4 W161A): ++ (10–29% reduction compared with wild-type CXCR4)
- Competitive receptor binding activity, CXCR4 V112A (CXCR4 V112A): ++ (10–29% reduction compared with wild-type CXCR4)

Compound: I: [dL]G[dA][dS][dW][dH][dR][dP][dD][dK][dC][dC][dL]G[dY][dQ][dK][dR][dP][dL][dP] / II: [dL]G[dA][dS][dW][dH][dR][dP][dD][dK][dC][dC][dL]G[dY][dQ][dK][dR][dP][dL][dP] (disulfide I:11-II:11, I:12-II:12) [DV1 dimer]
- Competitive receptor binding activity, CXCR4 Y45A (CXCR4 Y45A): ++ (10–29% reduction compared with wild-type CXCR4)
- Competitive receptor binding activity, CXCR4 Y256A (CXCR4 Y256A): +++
- Competitive receptor binding activity, CXCR4 D262E (CXCR4 D262E): ++ (10–29% reduction compared with wild-type CXCR4)
- Competitive receptor binding activity, wild-type CXCR4 (WT) (CXCR4 [1]): +++
- Competitive receptor binding activity, CXCR4 D193A (CXCR4 D193A): ++ (10–29% reduction compared with wild-type CXCR4)
- inhibition at 2 µM (CXCR4 [2]; SUP-T1, at 2 μM): 43%
- Competitive receptor binding activity, CXCR4 Y255A (CXCR4 Y255A): +++
- Competitive receptor binding activity, CXCR4 R30A (CXCR4 R30A): +++
- Competitive receptor binding activity, CXCR4 W195A (CXCR4 W195A): +++
- inhibition at 1 µM (CXCR4 [3]; SUP-T1, at 1 μM): 75%
- Competitive receptor binding activity, CXCR4 W161A (CXCR4 W161A): +++
- Competitive receptor binding activity, CXCR4 V112A (CXCR4 V112A): +++

Compound: LGASWHRPDKCCLGYQKRPLPQVLLSSWYPTSQLCSKPGVIFLTKRGRQVCADKSKDWVKKLMQQLPVTAR [vMIP-II, viral macrophage-inflammatory protein-II, full-length natural chemokine antagonist produced by human herpesvirus-8; recombinant from Peprotech]
- Competitive receptor binding activity, CXCR4 Y45A (CXCR4 Y45A): +++
- Competitive receptor binding activity, CXCR4 Y256A (CXCR4 Y256A): +++
- Competitive receptor binding activity, CXCR4 D262E (CXCR4 D262E): ++ (10–29% reduction compared with wild-type CXCR4)
- Competitive receptor binding activity, wild-type CXCR4 (WT) (CXCR4 [1]): +++
- Competitive receptor binding activity, CXCR4 D193A (CXCR4 D193A): ++ (10–29% reduction compared with wild-type CXCR4)
- Inhibition of cell migration (CXCR4 [2]; at 50 nM): 64%
- Competitive receptor binding activity, CXCR4 Y255A (CXCR4 Y255A): +++
- Competitive receptor binding activity, CXCR4 R30A (CXCR4 R30A): +++
- Competitive receptor binding activity, CXCR4 W195A (CXCR4 W195A): ++ (10–29% reduction compared with wild-type CXCR4)
- Inhibition of the calcium signal (CXCR4 [3]; at 50 nM): 64%
- Competitive receptor binding activity, CXCR4 W161A (CXCR4 W161A): +++
- Competitive receptor binding activity, CXCR4 V112A (CXCR4 V112A): +++
